Results reported in ChEMBL document CHEMBL1201862, “PubChem BioAssay data set” (2004).
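Results reflect a 48-hour exposure of cells in 96-well plates to compound at five concentrations. The concentration for 50% growth inhibition is given as GI50.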 Activity calls are given as the source filed them. No stated cut-off is given here; in the data, active = GI50 up to about 1.1 µM and inactive = higher.

Assays:
Test in all cases: NCI anticancer screen, dose series, 48 h
SK-MEL-2 = tested on: SK-MEL-2
U-251 = tested on: U-251
MCF7 = tested on: MCF7
PC-3 = tested on: PC-3
TK-10 = tested on: TK-10
NCI-H460 = tested on: NCI-H460
NCI-H522 = tested on: NCI-H522
BT-549 = tested on: BT-549
MDA-MB-231 = tested on: MDA-MB-231
MDA-MB-435 = tested on: MDA-MB-435
SN12C = tested on: SN12C
SW-620 = tested on: SW-620
HCT-15 = tested on: HCT-15
HOP-92 = tested on: HOP-92
SNB-19 = tested on: SNB-19
MOLT-4 = tested on: MOLT-4
SF-539 = tested on: SF-539
HOP-62 = tested on: HOP-62
LOX IMVI = tested on: LOX IMVI

Measured: GI50

CCOC(=O)C1=C(C)NC(C)=C(C(=O)OCC)C1c1ccc(C)cc1
25.8 µM: HCT-15
inactive: SK-MEL-2 39.8 µM | U-251 46.9 µM | MCF7 11.2 µM | PC-3 24.5 µM | TK-10 66.8 µM | NCI-H460 22.9 µM | NCI-H522 32.4 µM | BT-549 52.8 µM | MDA-MB-231 29.4 µM | MDA-MB-435 35.4 µM | SN12C 22.1 µM | SW-620 45.8 µM | HOP-92 13.1 µM | SNB-19 63.1 µM | MOLT-4 25.9 µM | SF-539 37.1 µM | HOP-62 46.5 µM | LOX IMVI 31.8 µM

CC1=CC[C@@]2(C)[C@@H]([C@@H]1C)[C@H]1CC[C@@H]3[C@@]4(C)CC[C@H](O)C(C)(C)[C@@H]4CC[C@@]3(C)[C@]1(C)C[C@@H]2O
inactive: SK-MEL-2 24.8 µM | U-251 7.94 µM | MCF7 35.2 µM | PC-3 18.6 µM | TK-10 > 39.5 µM | NCI-H460 19.1 µM | NCI-H522 2.52 µM | BT-549 29.1 µM | MDA-MB-231 8.2 µM | MDA-MB-435 20.2 µM | SN12C 6.61 µM | SW-620 33.6 µM | HOP-92 25.6 µM | SNB-19 37.8 µM | MOLT-4 13.9 µM | SF-539 27 µM | HOP-62 13.5 µM | LOX IMVI 5.53 µM
26.1 µM: HCT-15

Nc1nc(N)nc(CCCCc2nc(N)nc(N)n2)n1
inactive: SK-MEL-2 > 100 µM | U-251 > 100 µM | MCF7 > 100 µM | PC-3 > 100 µM | TK-10 > 100 µM | NCI-H460 > 100 µM | NCI-H522 > 100 µM | BT-549 > 100 µM | MDA-MB-231 > 100 µM | MDA-MB-435 > 100 µM | SN12C > 100 µM | SW-620 > 100 µM | HOP-92 > 100 µM | SNB-19 > 100 µM | MOLT-4 > 100 µM | SF-539 > 100 µM | HOP-62 > 100 µM | LOX IMVI > 100 µM
> 100 µM: HCT-15

S=C1Cc2c(-c3ccccc3)cc(-c3ccc(Cl)cc3)nc2-c2ccccc2N1
active: U-251 0.746 µM
inactive: SK-MEL-2 6.85 µM | MCF7 15.1 µM | PC-3 6.14 µM | TK-10 2.12 µM | NCI-H460 3.27 µM | NCI-H522 2.06 µM | BT-549 5.56 µM | MDA-MB-231 1.53 µM | MDA-MB-435 4.79 µM | SN12C 1.63 µM | SW-620 2.94 µM | HOP-92 1.72 µM | SNB-19 1.56 µM | MOLT-4 3.79 µM | SF-539 3.08 µM | HOP-62 1.39 µM | LOX IMVI 3.41 µM
6.84 µM: HCT-15

c1ccc(-c2cc3[nH]c4ccccc4[nH]c-3cc(-c3ccccc3)nn2)cc1
87.7 µM: HCT-15
inactive: SK-MEL-2 > 100 µM | U-251 55.6 µM | MCF7 51.3 µM | PC-3 55.1 µM | TK-10 22.9 µM | NCI-H460 30 µM | NCI-H522 71 µM | BT-549 > 100 µM | MDA-MB-231 80 µM | MDA-MB-435 64.3 µM | SN12C > 100 µM | SW-620 81.7 µM | HOP-92 > 100 µM | SNB-19 41.6 µM | MOLT-4 > 100 µM | SF-539 39.6 µM | HOP-62 26.3 µM | LOX IMVI 72.3 µM

Cc1ccc2c(c1)C(C1Cc3cccc(C)c3C1=O)OC2=O (configuration not stated)
inactive: SK-MEL-2 > 100 µM | U-251 > 100 µM | MCF7 81.1 µM | PC-3 > 100 µM | TK-10 > 100 µM | NCI-H460 > 100 µM | NCI-H522 > 100 µM | BT-549 > 100 µM | MDA-MB-231 > 100 µM | MDA-MB-435 47.5 µM | SN12C > 100 µM | SW-620 > 100 µM | HOP-92 > 100 µM | SNB-19 > 100 µM | MOLT-4 96.4 µM | SF-539 > 100 µM | HOP-62 > 100 µM | LOX IMVI 34.2 µM
> 100 µM: HCT-15

COc1ccc2c(c1OC)OC[C@@H](C1=CC(=O)C=C(O)C1=O)C2
14.7 µM: HCT-15
active: MOLT-4 0.838 µM
inactive: SK-MEL-2 15.3 µM | U-251 11.7 µM | MCF7 9.91 µM | PC-3 13.1 µM | TK-10 14.2 µM | NCI-H460 11.8 µM | NCI-H522 2.7 µM | BT-549 12.8 µM | MDA-MB-231 4.46 µM | MDA-MB-435 8.61 µM | SN12C 16.2 µM | SW-620 8.2 µM | HOP-92 1.89 µM | SNB-19 16 µM | SF-539 13.5 µM | HOP-62 27 µM | LOX IMVI 3.32 µM

O=[N+]([O-])/C(C(Cl)=C(Cl)Cl)=C(/Sc1ccccc1)N1CCCCC1
inactive: SK-MEL-2 2.44 µM | U-251 > 100 µM | MCF7 > 100 µM | PC-3 > 75.9 µM | TK-10 > 100 µM | NCI-H460 > 100 µM | NCI-H522 13.6 µM | BT-549 > 100 µM | MDA-MB-231 > 61.5 µM | MDA-MB-435 > 36.7 µM | SN12C > 100 µM | SW-620 > 100 µM | HOP-92 > 100 µM | SNB-19 > 58.7 µM | MOLT-4 3.52 µM | SF-539 > 100 µM | HOP-62 > 59.3 µM | LOX IMVI 8.45 µM
> 100 µM: HCT-15
